The test addresses T1, HEK-293 cell membranes containing stable cloned human and rat GPR-14 (UniProt Q9UKP6).
T1 sequence (Q9UKP6 1-389): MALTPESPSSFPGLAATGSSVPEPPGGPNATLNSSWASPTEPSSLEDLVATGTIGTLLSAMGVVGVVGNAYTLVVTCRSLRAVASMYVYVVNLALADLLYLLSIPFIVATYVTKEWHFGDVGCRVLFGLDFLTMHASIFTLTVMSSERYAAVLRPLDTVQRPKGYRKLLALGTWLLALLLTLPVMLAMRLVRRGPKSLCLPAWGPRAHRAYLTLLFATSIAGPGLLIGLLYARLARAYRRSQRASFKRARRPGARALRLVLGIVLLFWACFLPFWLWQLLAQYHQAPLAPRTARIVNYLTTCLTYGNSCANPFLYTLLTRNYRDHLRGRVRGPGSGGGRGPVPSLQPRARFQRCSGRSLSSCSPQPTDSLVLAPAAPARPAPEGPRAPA
The test can be described thus: Radioligand binding ([125I] h-U-II). To be noted: [125I] h-U-II 200 pM, species of GPR-14 (human or rat) not given. The procedure:
HEK-293 cell membranes containing stable cloned human and rat GPR-14 (20 ug/assay) were incubated with 200 pM [125I] h-U-II (200 Ci/mmol^−1 in the presence of increasing concentrations of test compounds in DMSO (0.1 nM to 10 uM), in a final incubation volume of 200 ul (20 mM Tris-HCl, 5 mM MgCl2). Incubation was done for 30 minutes at room temperature followed by filtration GF/B filters with Brandel cell harvester. ^125I labeled U-II binding was quantitated by gamma counting. Nonspecific binding was defined by ^125I U-II binding in the presence of 100 nM of unlabeled human U-II. Analysis of the data was performed by nonlinear least square fitting.

Molecules are shown by their SMILES. pKi: −log10 of the molar value.

One may read the pKi as the Ki on a negative log10 scale, so that one unit is a factor of ten. The low end stands for a high Ki, the high end for a low Ki. As for `CN1CC[C@@H](Oc2cc(NS(=O)(=O)c3cccc4nsnc34)ccc2Cl)C1` [Example 3, (R)-N-[4-Chloro-3-(1-methyl-3-pyr-rolidinyloxy)-phenyl]-ben-zo[1,2,5]thiadiazole-1-sulfonamide], the pKi is 6.64.

These data come from patent publication US20040142948A1, “Sulfonamides” (priority 2003, published 2004).
